Laboratory results as given in US20150119352A1, “DINUCELOSIDE POLYPHOSPHATES FOR THE TREATMENT OF PAIN” (GlobalAcorn Ltd., priority 2012, published 2015).
Like-named read-outs stand apart in the source and are kept apart here.

Test system: male Wistar rats
Experiment: Formalin test (nociceptive behaviour, spontaneous jerking of injected paw)
Format: in vivo, rat
Details: for nociceptive behavior after control injection of compound alone: 100 μM (100 μL), no formalin; for IC50: Rattus norvegicus; for IC50 First phase (acute pain), calculated / IC50 Second phase (chronic pain), calculated: Table 1, assuming 40 g rat body weight; for First phase (acute pain) / First phase (acute pain) (μg/kg) / Second phase (chronic pain) / Second phase (chronic pain) (μg/kg): Table 2; for First phase (acute pain) Human (70 kg) nmol / Second phase (chronic pain) Human (70 kg) nmol: Table 2, estimated indicative dose for 70 kg human; for First phase (acute pain) Rat (40 g) nmol / Second phase (chronic pain) Rat (40 g) nmol: Table 2, per 40 g rat; for recalculated effective concentration (second phase): assuming 40 g rat body weight; for number of nocifensive events triggered by the injection of formalin: co-injection 100 μL with formalin
Procedure: FIG. 6. Effects of subcutaneous Ap4A analogues on pain responses induced by intraplantar (right hindpaw) formalin injection. Rats were subcutaneously injected with formalin solution alone (0.5%, 50 μL, control) or co-injected with the formalin solution and solutions with AppCH2ppA (1 μM-100 μM, 100 μL) or AppNHppA (0.1 μM-100 μM, 100 μL). Age-matched control animals were injected with saline. A. Time-course of the effects of subcutaneous AppCH2ppA (a) and AppNHppA (b) on the number of the spontaneous jerkings of the injected paw. B. Bar-graphs of the effects of AppCH2ppA (a, b) and AppNHppA (c, d) on the integral number of spontaneous jerkings. Measurements were made during the acute phase (0-6 min) and tonic phase (7-45 min) of the formalin response. C. Dose-response curves for AppCH2ppA (a) and AppNHppA (b) during tonic and acute phases.
The formalin test experiments were performed on 21-day old male Wistar rats, weighing 40±5 g according to the method described previously (Simonetti et al, 2006; Yegutkin et al, 2008). Briefly, animal was acclimated to an acrylic observation chamber for at least 1 h before the injection of formalin ([…] of 0.5% solution in 0.9% saline) into the dorsal surface of the right hindpaw. Age-matched control animals were injected with saline (100 μL). Immediately after the injection, each animal was returned to the observation chamber and its behavioural characteristics were recorded for 45 min. We noticed consistently observed type of response: spontaneous jerking of the injected paw. The number of jerks was measured for each […], using self-developed computer software.
The effects of AppNHppA and AppCH2ppA were examined on the behavioral reactions of rats in inflammatory pain models. Injection of diluted formalin into a rodent's hindpaw produces a biphasic nociceptive response consisting of immediate (acute phase) and tonic (inflammatory phase) components. The first phase of a formalin response (i.e. 0-5 min after injection) involves a direct effect of formalin on the pain receptors, while changes in animal behavior during the second tonic phase (i.e. 7-45 min after injection) are caused by hyperalgesia that develops due to the sensitization of nociceptive and spinal neurons via mechanisms that are triggered by repetitive stimulation during the first phase.

[1] = Table 1, concentration, read-out: IC50 First phase (acute pain)
[2] = Table 1, concentration, read-out: IC50 Second phase (chronic pain)
[3] = co-injection (100 μL) with formalin into paw, read-out: IC50 in the first (acute) phase
[4] = co-injection (100 μL) with formalin into paw, read-out: IC50 in the second (tonic) phase

SMILES | nociceptive behavior after control injection of compound alone | IC50 [1] | IC50 [2] | IC50 [3] | IC50 [4] | IC50 First phase (acute pain), calculated | IC50 Second phase (chronic pain), calculated | First phase (acute pain) | First phase (acute pain) (μg/kg) | Second phase (chronic pain) | Second phase (chronic pain) (μg/kg) | First phase (acute pain) Human (70 kg) nmol | Second phase (chronic pain) Human (70 kg) nmol | First phase (acute pain) Rat (40 g) nmol | Second phase (chronic pain) Rat (40 g) nmol | recalculated effective concentration (second phase) | number of nocifensive events triggered by the injection of formalin | kH, first (acute) phase (co-injection with formalin) | kH, second (tonic) phase (co-injection with formalin) | times more effective reduction of nocifensive behavior in second (tonic) phase compared with first (acute) phase (rat, in vivo)
Nc1ncnc2c1ncn2[C@@H]1O[C@H](COP(=O)(O)OP(=O)(O)CP(=O)(O)OP(=O)(O)OC[C@H]2O[C@@H](n3cnc4c(N)ncnc43)C(O)C2O)C(O)C1O (stereo in doubt) [AppCH2ppA] | Lack of nociceptive behavior | 32000 ± 2200 nM | 510 ± 60 nM | 31900 ± 22000 nM | 500 ± 60 nM | 80 ± 5.5 nmol/kg | 1.28 + 0.06 nmol/kg | 80 ± 5.5 nmol/kg | (67) μg/kg | 1.28 ± 0.06 nmol/kg | (1.067) μg/kg | 5600 nmol | 89.6 nmol | 3.2 nmol | 0.0512 nmol | 1.28±0.06 nmolkg | potently reduced | 0.82±0.09 | 0.89±0.18 | 60 times
Nc1ncnc2c1ncn2[C@@H]1O[C@H](COP(=O)(O)OP(=O)(O)NP(=O)(O)OP(=O)(O)OC[C@H]2O[C@@H](n3cnc4c(N)ncnc43)C(O)C2O)C(O)C1O (stereo in doubt) [AppNHppA] | Lack of nociceptive behavior | > 100000 nM | 250 ± 90 nM | > 100000 nM | 250 ± 60 nM | >250 nmol/kg | 0.63 ± 0.23 nmol/kg | >250 nmol/kg | (209) μg/kg | 0.63 ± 0.23 nmol/kg | (0.526) μg/kg | 17500 nmol | 44.1 nmol | 10 nmol | 0.0252 nmol | 0.63±0.23 nmolkg | potently reduced |  | 0.89±0.18 | 
